# Patent US8192962B2, “Processes for detecting toxic substances” (Daikin Industries, Ltd., priority 2001, dated 2012)
# Tested on: Unknown protein yeast genes
# Experiment: DNA chip mRNA expression in yeast, unknown protein yeast genes (Table 1)
# Assay type: cell-based, Saccharomyces cerevisiae S288C
# How it was run: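 Chemical exposure: 2 h, log-phase S. cerevisiae S288C, YPD, 25° C., dose set to inhibit growth without death. Profiling: mRNA labeled by reverse transcription with Cy3- or Cy5-dUTP, hybridized to whole-genome array. Output: fluorescence ratio against untreated culture.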
structure (smiles),measurement,setting,value
"C=CC=O [(14), acrolein]",The level of expressed mRNA in the presence of chemical substance/The level of expressed mRNA in the absence of chemical substance,"yeast gene YAL053W, incubated two hours with chemical substance",0.7
same,The level of expressed mRNA in the presence of chemical substance/The level of expressed mRNA in the absence of chemical substance,yeast gene YBL048W,2.0
same,The level of expressed mRNA in the presence of chemical substance/The level of expressed mRNA in the absence of chemical substance,yeast gene YBL107C,2.5
same,The level of expressed mRNA in the presence of chemical substance/The level of expressed mRNA in the absence of chemical substance,"yeast gene YDL072C, incubated two hours with chemical substance",1.8
same,The level of expressed mRNA in the presence of chemical substance/The level of expressed mRNA in the absence of chemical substance,"yeast gene YDL204W, incubated two hours with chemical substance",2.4
same,The level of expressed mRNA in the presence of chemical substance/The level of expressed mRNA in the absence of chemical substance,"yeast gene YDL222C, incubated two hours with chemical substance",1.3
same,The level of expressed mRNA in the presence of chemical substance/The level of expressed mRNA in the absence of chemical substance,"yeast gene YDR330W, incubated two hours with chemical substance",1.1
same,The level of expressed mRNA in the presence of chemical substance/The level of expressed mRNA in the absence of chemical substance,"yeast gene YDR411C, incubated two hours with chemical substance",0.8
same,The level of expressed mRNA in the presence of chemical substance/The level of expressed mRNA in the absence of chemical substance,"yeast gene YDR511W, incubated two hours with chemical substance",2.2
same,The level of expressed mRNA in the presence of chemical substance/The level of expressed mRNA in the absence of chemical substance,"yeast gene YDR545W, incubated two hours with chemical substance",0.7
same,The level of expressed mRNA in the presence of chemical substance/The level of expressed mRNA in the absence of chemical substance,"yeast gene YEL001C, incubated two hours with chemical substance",1.3
same,The level of expressed mRNA in the presence of chemical substance/The level of expressed mRNA in the absence of chemical substance,"yeast gene YER004W, incubated two hours with chemical substance",1.8
same,The level of expressed mRNA in the presence of chemical substance/The level of expressed mRNA in the absence of chemical substance,"yeast gene YER035W, incubated two hours with chemical substance",1.0
same,The level of expressed mRNA in the presence of chemical substance/The level of expressed mRNA in the absence of chemical substance,"yeast gene YER079W, incubated two hours with chemical substance",1.6
same,The level of expressed mRNA in the presence of chemical substance/The level of expressed mRNA in the absence of chemical substance,"yeast gene YER106W, incubated two hours with chemical substance",1.5
same,The level of expressed mRNA in the presence of chemical substance/The level of expressed mRNA in the absence of chemical substance,"yeast gene YER158C, incubated two hours with chemical substance",0.9
same,The level of expressed mRNA in the presence of chemical substance/The level of expressed mRNA in the absence of chemical substance,"yeast gene YER163C, incubated two hours with chemical substance",1.9
same,The level of expressed mRNA in the presence of chemical substance/The level of expressed mRNA in the absence of chemical substance,"yeast gene YER175C, incubated two hours with chemical substance",1.1
same,The level of expressed mRNA in the presence of chemical substance/The level of expressed mRNA in the absence of chemical substance,"yeast gene YFL006W, incubated two hours with chemical substance",1.7
same,The level of expressed mRNA in the presence of chemical substance/The level of expressed mRNA in the absence of chemical substance,"yeast gene YFL010C, incubated two hours with chemical substance",1.4
same,The level of expressed mRNA in the presence of chemical substance/The level of expressed mRNA in the absence of chemical substance,yeast gene YFL024C,3.3
same,The level of expressed mRNA in the presence of chemical substance/The level of expressed mRNA in the absence of chemical substance,"yeast gene YFL032W, incubated two hours with chemical substance",0.6
same,The level of expressed mRNA in the presence of chemical substance/The level of expressed mRNA in the absence of chemical substance,"yeast gene YGL037C, incubated two hours with chemical substance",1.0
same,The level of expressed mRNA in the presence of chemical substance/The level of expressed mRNA in the absence of chemical substance,"yeast gene YGL047W, incubated two hours with chemical substance",2.3
same,The level of expressed mRNA in the presence of chemical substance/The level of expressed mRNA in the absence of chemical substance,"yeast gene YGL053W, incubated two hours with chemical substance",1.1
same,The level of expressed mRNA in the presence of chemical substance/The level of expressed mRNA in the absence of chemical substance,yeast gene YGL121C,5.8
same,The level of expressed mRNA in the presence of chemical substance/The level of expressed mRNA in the absence of chemical substance,"yeast gene YGL199C, incubated two hours with chemical substance",0.8
same,The level of expressed mRNA in the presence of chemical substance/The level of expressed mRNA in the absence of chemical substance,"yeast gene YGR101W, incubated two hours with chemical substance",0.9
same,The level of expressed mRNA in the presence of chemical substance/The level of expressed mRNA in the absence of chemical substance,yeast gene YGR110W,2.8
same,The level of expressed mRNA in the presence of chemical substance/The level of expressed mRNA in the absence of chemical substance,"yeast gene YGR130C, incubated two hours with chemical substance",0.9
same,The level of expressed mRNA in the presence of chemical substance/The level of expressed mRNA in the absence of chemical substance,"yeast gene YGR154C, incubated two hours with chemical substance",2.2
same,The level of expressed mRNA in the presence of chemical substance/The level of expressed mRNA in the absence of chemical substance,"yeast gene YGR221C, incubated two hours with chemical substance",1.4
same,The level of expressed mRNA in the presence of chemical substance/The level of expressed mRNA in the absence of chemical substance,"yeast gene YHR138C, incubated two hours with chemical substance",3.4
same,The level of expressed mRNA in the presence of chemical substance/The level of expressed mRNA in the absence of chemical substance,"yeast gene YHR199C, incubated two hours with chemical substance",2.0
same,The level of expressed mRNA in the presence of chemical substance/The level of expressed mRNA in the absence of chemical substance,"yeast gene YIL023C, incubated two hours with chemical substance",0.7
same,The level of expressed mRNA in the presence of chemical substance/The level of expressed mRNA in the absence of chemical substance,"yeast gene YIL041W, incubated two hours with chemical substance",1.3
same,The level of expressed mRNA in the presence of chemical substance/The level of expressed mRNA in the absence of chemical substance,"yeast gene YIL087C, incubated two hours with chemical substance",1.3
same,The level of expressed mRNA in the presence of chemical substance/The level of expressed mRNA in the absence of chemical substance,"yeast gene YJL057C, incubated two hours with chemical substance",1.6
same,The level of expressed mRNA in the presence of chemical substance/The level of expressed mRNA in the absence of chemical substance,"yeast gene YJL066C, incubated two hours with chemical substance",1.0
same,The level of expressed mRNA in the presence of chemical substance/The level of expressed mRNA in the absence of chemical substance,"yeast gene YJL082W, incubated two hours with chemical substance",0.5
same,The level of expressed mRNA in the presence of chemical substance/The level of expressed mRNA in the absence of chemical substance,"yeast gene YJL151C, incubated two hours with chemical substance",1.3
same,The level of expressed mRNA in the presence of chemical substance/The level of expressed mRNA in the absence of chemical substance,"yeast gene YJL152W, incubated two hours with chemical substance",1.4
same,The level of expressed mRNA in the presence of chemical substance/The level of expressed mRNA in the absence of chemical substance,"yeast gene YJL161W, incubated two hours with chemical substance",2.2
same,The level of expressed mRNA in the presence of chemical substance/The level of expressed mRNA in the absence of chemical substance,"yeast gene YJL171C, incubated two hours with chemical substance",1.0
same,The level of expressed mRNA in the presence of chemical substance/The level of expressed mRNA in the absence of chemical substance,"yeast gene YJR008W, incubated two hours with chemical substance",1.2
same,The level of expressed mRNA in the presence of chemical substance/The level of expressed mRNA in the absence of chemical substance,"yeast gene YJR054W, incubated two hours with chemical substance",1.2
same,The level of expressed mRNA in the presence of chemical substance/The level of expressed mRNA in the absence of chemical substance,yeast gene YKL071W,21.9
same,The level of expressed mRNA in the presence of chemical substance/The level of expressed mRNA in the absence of chemical substance,"yeast gene YKL086W, incubated two hours with chemical substance",2.9
same,The level of expressed mRNA in the presence of chemical substance/The level of expressed mRNA in the absence of chemical substance,yeast gene YKL107W,3.4
same,The level of expressed mRNA in the presence of chemical substance/The level of expressed mRNA in the absence of chemical substance,"yeast gene YKL151C, incubated two hours with chemical substance",1.3
same,The level of expressed mRNA in the presence of chemical substance/The level of expressed mRNA in the absence of chemical substance,"yeast gene YKL153W, incubated two hours with chemical substance",1.1
